In data set [1] the test system is fibroblasts. The note with it: added to fibroblasts, alone; cited from earlier work.
Data set [2] has as its system hESC. Kind of data set: TSA toxicity in hESC. The format is cell-based, human.
In data set [3] the test system is hESC. The note with it: independent of feeders or recombinant growth factors; cited from earlier work.
The test system of data set [4] is hESC. Kind of data set: BMP4-induced differentiation of hESC colonies. The data set is classed as cell-based, human. As to conditions: hESC line WA07, 100 ng/ml BMP4, 4 days; confirmed by CDX2 immunostaining. The method, then: Pluripotent hESC cultures, line WA07 (a, d, g, i) were compared to hESC that were differentiated in vitro for 4 days in culture with 100 ng/ml BMP4 (b, e, h, j). The squamous epithelial monolayer that was formed is trophectoderm, found in the outer shell of blastocysts and destined to form the placenta. Fixed colonies were stained with the DNA dye, Hoechst 33342 (a, b) and with antibodies to the pluripotency marker OCT4 (d) and the trophectoderm marker, CDX2 (e). Morphological differences that are characteristic of the spreading colonies include an increase in cell (c) and nuclear size (f). The Hoechst image of 4 colonies were analyzed for nuclear size and number of nuclei per colony area (average cell area) and differences between pluripotent and trophectoderm colony morphology were significant at p<0.05 by Students T test. Colony morphology in live cells (g, h), not fixed and immunostained as was performed in (a-f), is provided by the distribution of spatial frequencies in the image (i, j). […] Spatial frequencies are higher in pluripotent than in TE colonies and can be more completely measured using wavelet analysis, a generalized 2D, multiscalar measure of image texture. […] Empirical probability density functions (k-l) for three detail subbands of the line scans in (i) and (j) quantify the concept of spatial frequency. […]

Turning to “FGF2: single growth factor added to media or fibroblasts”, in data set [1], the “effect on expression of endogenous pluripotency markers” value was “increased expression of endogenous pluripotency markers”.
As for `CC(/C=C/C(=O)NO)=C\[C@@H](C)C(=O)c1ccc(N(C)C)cc1` [TSA, trichostatin A], the “highest concentration without toxic effects” value in data set [2] is 1 nM. For the same molecule, the effect on self-renewal entry in data set [3] was “activates a self-renewal program in hESC”.

B1: BMP4: growth factor bone morphogenic protein, BMP4 (protein, UniProt P12644 293-408, looked up)
Bone morphogenetic protein 4: SPKHHSQRARKKNKNCRRHSLYVDFSDVGWNDWIVAPPGYQAFYCHGDCPFPLADHLNSTNHAIVQTLVNSVNSSIPKACCVPTELSAISMLYLDEYDKVVLKNYQEMVVEGCGCR
In the case of B1, in data set [4], the differentiation outcome is reported as “form trophectoderm”.
